Measured values published in patent US11214564B2, “Compounds with thymine skeleton for use in medicine” (TECHNISCHE UNIVERSITÄT DRESDEN, priority 2019, dated 2022).

The compounds below were run against HSP27 (Homo sapiens, UniProt P04792) (assay: Aggregation assay: HSP27 chaperone activity on heat-induced aggregation of citrate synthase). Conditions: compound 10 μM; 1.44 μM CS, 481 nM HSP27, 43° C., 500 nm.
Type: biochemical
Protocol: To test how small molecules affect the chaperone activity of HSP27, misfolding and aggregation of citrate synthase (CS), a well-known in vitro client protein of HSP27, was measured. Citrate synthase misfolds and aggregates when exposed to heat shock at 43° C. This heat denaturation is prevented or delayed in the presence of HSP27 (CS+HSP27) (Jakob et al. (1993)). […] The samples were incubated at 43° C. and the aggregation behavior of CS was monitored in a spectrometer (PerkinElmer LS55) at a wavelength of 500 nm. Substances inhibiting HSP27's chaperone activity lead to continued denaturation of the client protein and its aggregation in solution. This inhibition correlates with the strength of the interaction between HSP27 and the test substance, which is related to its binding efficiency.
In the reference experiment BVDU (CS+HSP27+BVDU) was tested at a concentration of 750 μM as previously described (Heinrich et al. (2016)).
The compounds according to the invention were tested at a concentration of 10 μM.

Chain of HSP27 (P04792 whole entry): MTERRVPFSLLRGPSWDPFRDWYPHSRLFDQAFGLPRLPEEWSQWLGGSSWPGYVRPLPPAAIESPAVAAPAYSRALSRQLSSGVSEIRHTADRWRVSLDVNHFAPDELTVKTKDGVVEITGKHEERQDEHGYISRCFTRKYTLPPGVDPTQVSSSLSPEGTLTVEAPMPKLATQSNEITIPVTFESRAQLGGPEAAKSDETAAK

| SMILES | aggregation value related to the value from reference experiment (CS + HSP27 + BVDU), which was set at 1.0 |
| --- | --- |
| COc1ccc(-c2cccc(CC(=O)Nc3ccc(-n4cc(C)c(=O)[nH]c4=O)cc3)c2)cc1Cl [Compound 1, 2-(3′-Chloro-4′-methoxy-[1,1′-biphenyl]-3-yl)-N-(4-(5-methyl-2,4-dioxo-3,4-dihydropyrimidin-1(2H)-yl)phenyl)acetamide] | 1.76 |
| Cc1cn(-c2ccc(NC(=O)Cc3cccc(-c4cccc(Cl)c4)c3)cc2)c(=O)[nH]c1=O [Compound 2, 2-(3′-chloro-[1,1′-biphenyl]-3-yl)-N-(4-(5-methyl-2,4-dioxo-3,4-dihydro-pyrimidin-1(2H)-yl)phenyl) acetamide] | 1.55 |
| Cc1cn(-c2ccc(NC(=O)Cc3cccc(-c4ccc(Cl)c(Cl)c4)c3)cc2)c(=O)[nH]c1=O [Compound 3, 2-(3′,4′-dichloro-[1,1′-biphenyl]-3-yl)-N-(4-(5-methyl-2,4-dioxo-3,4-dihydro-pyrimidin-1(2H)-yl)phenyl) acetamide] | 1.44 |
| Cc1ccc(-c2cccc(CC(=O)Nc3ccc(-n4cc(C)c(=O)[nH]c4=O)cc3)c2)cc1Cl [Compound 6, 2-(3′-chloro-4′-methyl-[1,1′-biphenyl]-3-yl)-N-(4-(5-methyl-2,4-dioxo-3,4-dihydropyrimidin-1(2H)-yl)phenyl) acetamide] | 1.38 |
| Cc1cn(-c2ccc(NC(=O)Cc3cccc(-c4ccc(Cl)cc4Cl)c3)cc2)c(=O)[nH]c1=O [Compound 7, 2-(2′,4′-dichloro-[1,1′-biphenyl]-3-yl)-N-(4-(5-methyl-2,4-dioxo-3,4-dihydro-pyrimidin-1(2H)-yl)phenyl) acetamide] | 1.35 |
| CC(C)Oc1ccc(-c2cccc(CC(=O)Nc3ccc(-n4ccc(=O)[nH]c4=O)cc3)c2)cc1Cl [Compound 8, 2-(3′-chloro-4′-isopropoxy-[1,1′-biphenyl]-3-yl)-N-(4-(2,4-dioxo-3,4-dihydro-pyrimidin-1(2H)-yl)phenyl) acetamide] | 1.34 |
| Cc1cn(-c2ccc(NC(=O)Cc3cccc(-c4cccc(C(F)(F)F)c4)c3)cc2)c(=O)[nH]c1=O [Compound 9, N-(4-(5-methyl-2,4-dioxo-3,4-dihydro-pyrimidin-1(2H)-yl)phenyl)-2-(3′-(trifluoromethyl)-[1,1′-biphenyl]-3-yl)acetamide] | 1.3 |
| Cc1ccc(-c2cccc(CC(=O)Nc3ccc(-n4ccc(=O)[nH]c4=O)cc3C)c2)cc1Cl [Compound 10, 2-(3′-chloro-4′-methyl-[1,1′-biphenyl]-3-yl)-N-(4-(2,4-dioxo-3,4-dihydro-pyrimidin-1(2H)-yl)-2-methyl-phenyl)acetamide] | 1.3 |
| Cc1cn(-c2ccc(NC(=O)Cc3cccc(-c4cccc(OC(F)(F)F)c4)c3)cc2)c(=O)[nH]c1=O [Compound 11, N-(4-(5-methyl-2,4-dioxo-3,4-dihydro-pyrimidin-1(2H)-yl)phenyl)-2-(3′-(trifluoro-methoxy)-[1,1′-biphenyl]-3-yl) acetamide] | 1.28 |
| COc1ccc(-c2cccc(CC(=O)Nc3ccc(-n4ccc(=O)[nH]c4=O)c(Cl)c3)c2)cc1Cl [Compound 13, 2-(3′-chloro-4′-methoxy-[1,1′-biphenyl]-3-yl)-N-(3-chloro-4-(2,4-dioxo-3,4-dihydro-pyrimidin-1(2H)-yl)phenyl) acetamide] | 1.21 |
| COc1ccc(-c2cccc(CC(=O)Nc3ccc(-n4ccc(=O)[nH]c4=O)cc3C)c2)cc1Cl [Compound 14, 2-(3′-chloro-4′-methoxy-[1,1′-biphenyl]-3-yl)-N-(4-(2,4-dioxo-3,4-dihydro-pyrimidin-1(2H)-yl)-2-methyl-phenyl)acetamide] | 1.2 |
| Cc1cn(-c2ccc(NC(=O)Cc3cccc(-c4ccc(Cl)cc4)c3)cc2)c(=O)[nH]c1=O [Compound 15, 2-(4′-chloro-[1,1′-biphenyl]-3-yl)-N-(4-(5-methyl-2,4-dioxo-3,4-dihydropyrimidin-1(2H)-yl)phenyl) acetamide] | 1.11 |
| O=C(Cc1cccc(-c2ccc(Cl)cc2)c1)Nc1ccc(-n2cc(F)c(=O)[nH]c2=O)cc1 [Compound 16, 2-(4′-chloro-[1,1′-biphenyl]-3-yl)-N-(4-(5-fluoro-2,4-dioxo-3,4-dihydro-pyrimidin-1(2H)-yl)phenyl) acetamide] | 1.04 |
| O=C(Cc1cccc(-c2cccc(OC(F)(F)F)c2)c1)Nc1ccc(-n2cc(Cl)c(=O)[nH]c2=O)cc1 [Compound 17, N-(4-(5-chloro-2,4-dioxo-3,4-dihydro-pyrimidin-1(2H)-yl)phenyl)-2-(3′-(trifluoro-methoxy)-[1,1′-biphenyl]-3-yl) acetamide] | 1.01 |
| Cc1cc(-n2ccc(=O)[nH]c2=O)ccc1NC(=O)Cc1cccc(-c2ccc(Cl)c(Cl)c2)c1 [Compound 18, 2-(3′,4′-dichloro-[1,1′-biphenyl]-3-yl)-N-(4-(2,4-dioxo-3,4-dihydro-pyrimidin-1(2H)-yl)-2-methyl-phenyl)acetamide] | 1 |
| O=C(Cc1cccc(-c2cccc(OC(F)(F)F)c2)c1)Nc1ccc(-n2ccc(=O)[nH]c2=O)c(Cl)c1 [Compound 19, N-(3-chloro-4-(2,4-dioxo-3,4-dihydro-pyrimidin-1(2H)-yl)phenyl)-2-(3′-(trifluoro-methoxy)-[1,1′-biphenyl]-3-yl) acetamide] | 0.97 |
| O=C(Cc1cccc(-c2ccc(Cl)cc2Cl)c1)Nc1ccc(-n2cc(F)c(=O)[nH]c2=O)cc1 [Compound 20, 2-(2′,4′-dichloro-[1,1′-biphenyl]-3-yl)-N-(4-(5-fluoro-2,4-dioxo-3,4-dihydro-pyrimidin-1(2H)-yl)phenyl) acetamide] | 0.96 |

Further lines, results first:

| aggregation value related to the value from reference experiment (CS + HSP27 + BVDU), which was set at 1.0 | SMILES |
| --- | --- |
| 0.94 | O=C(Cc1cccc(-c2ccc(Cl)c(Cl)c2)c1)Nc1ccc(-n2ccc(=O)[nH]c2=O)c(Cl)c1 [Compound 21, N-(3-chloro-4-(2,4-dioxo-3,4-dihydro-pyrimidin-1(2H)-yl)phenyl)-2-(3′,4′-dichloro-[1,1′-biphenyl]-3-yl)acetamide] |
| 0.91 | COc1cccc(-c2cccc(CC(=O)Nc3ccc(-n4cc(C)c(=O)[nH]c4=O)cc3)c2)c1 [Compound 22, 2-(3′-methoxy-[1,1′-biphenyl]-3-yl)-N-(4-(5-methyl-2,4-dioxo-3,4-dihydro-pyrimidin-1(2H)-yl)phenyl) acetamide] |
| 1.33 | Cc1cn(-c2ccc(NC(=O)Cc3cccc(-c4ccc(OC(C)C)c(Cl)c4)c3)cc2)c(=O)[nH]c1=O [Compound 23, 2-(3′-chloro-4′-isopropoxy-[1,1′-biphenyl]-3-yl)-N-(4-(5-methyl-2,4-dioxo-3,4-dihydropyrimidin-1(2H)-yl)phenyl) acetamide] |
| 0.88 | O=C(Cc1cccc(-c2ccc(Cl)cc2)c1)Nc1ccc(-n2ccc(=O)[nH]c2=O)cc1 [Compound 24, 2-(4′-chloro-[1,1′-biphenyl]-3-yl)-N-(4-(2,4-dioxo-3,4-dihydro-pyrimidin-1(2H)-yl)phenyl) acetamide] |
| 0.88 | COc1ccc(-c2cccc(CC(=O)Nc3ccc(-n4ccc(=O)[nH]c4=O)cc3F)c2)cc1Cl [Compound 25, 2-(3′-chloro-4′-methoxy-[1,1′-biphenyl]-3-yl)-N-(4-(2,4-dioxo-3,4-dihydro-pyrimidin-1(2H)-yl)-2-fluoro-phenyl)acetamide] |
| 0.85 | O=C(Cc1cccc(-c2cccc(Cl)c2)c1)Nc1ccc(-n2ccc(=O)[nH]c2=O)cc1 [Compound 26, 2-(3′-chloro-[1,1′-biphenyl]-3-yl)-N-(4-(2,4-dioxo-3,4-dihydro-pyrimidin-1(2H)-yl)phenyl) acetamide] |
| 0.83 | COc1ccc(-c2cccc(CC(=O)Nc3ccc(-n4ccc(=O)[nH]c4=O)cc3)c2)cc1Cl [Compound 27, 2-(3′-chloro-4′-methoxy-[1,1′-biphenyl]-3-yl)-N-(4-(2,4-dioxo-3,4-dihydro-pyrimidin-1(2H)-yl)phenyl) acetamide] |
| 0.82 | O=C(Cc1cccc(-c2cccc(OC(F)(F)F)c2)c1)Nc1ccc(-n2ccc(=O)[nH]c2=O)cc1F [Compound 28, N-(4-(2,4-dioxo-3,4-dihydro-pyrimidin-1(2H)-yl)-2-fluoro-phenyl)-2-(3′-(trifluoro-methoxy)-[1,1′-biphenyl]-3-yl) acetamide] |
| 0.8 | Cc1ccc(-c2cccc(CC(=O)Nc3ccc(-n4ccc(=O)[nH]c4=O)cc3)c2)cc1Cl [Compound 29, 2-(3′-chloro-4′-methyl-[1,1′-biphenyl]-3-yl)-N-(4-(2,4-dioxo-3,4-dihydro-pyrimidin-1(2H)-yl)phenyl) acetamide] |
